According to paper PMC7083851, “Extended pharmacodynamic responses observed upon PROTAC-mediated degradation of RIPK2” (Communications Biology, 2020):
Values joined by “and” are separate entries in the source; they are usually repeats but may differ in a detail not shown here. Equal entries are not always repeated.

Experiments:
[1] = tested on: spontaneous IL-1β, IL-6, and TNFα release; assay: Spontaneous cytokine release (IL-1β, IL-6, TNFα) from Crohn's disease patient intestinal biopsies; type: cell-based, human; settings: prednisolone 1uM; individual biopsies; fig 4e
Protocol: (§1) Colonic biopsies or tissues were obtained during endoscopy or via surgical resection from Crohn’s Disease (CD) or Ulcerative Colitis (UC) patients (St Bartholomew’s Hospital, London). All patients gave informed written consent. For surgical specimens, the mucosa was dissected away from the submucosa and cut into pieces of ~10–20 mg. […] The supernatants were collected for cytokine measurement as detailed in cytokines assay section while tissues were used to determine RIPK2 levels.
(§2) Cytokine measurement assay: Cytokine levels were measured in rat plasma or rat PBMCs cell culture supernatants using rat V-Plex TNFα, in human plasma or human PBMCs cell culture supernatants with either TNFα tissue culture or 7-plex kit. Rat serum and tissues samples from the in vivo L18-MDP acute inflammation model were analyzed using the rat TNFα, Il-6 and IL-8 U-Plex kits. All kits provided by Meso Scale Discovery (MSD). Levels of cytokines spontaneously released from human colon biopsies cell culture supernatants were measured using Human IL-1 beta/IL-1F2 DuoSet ELISA (Bio-techne), Human IL-6 ELISA (Immunotools) and Human TNF-alpha DuoSet ELISA (Bio-techne). All samples were processed accordingly to the manufacturer’s instructions. The MSD plates were analyzed using the MSD sector imager 6000 plate reader and cytokines concentration (pg/ml) was obtained by using the MSD DISCOVERY WORKBENCH software version 4.0.12.1

[2] = tested on: spontaneous IL-1β, IL-6, and TNFα release; assay: Spontaneous cytokine release (IL-1β, IL-6, TNFα) from ulcerative colitis patient intestinal biopsies; type: cell-based, human; settings: prednisolone 1uM; individual biopsies; fig 4f
Protocol: as §1, §2

[3] = target: T1, RIPK2 (Homo sapiens, UniProt O43353); assay: RIPK2 degradation in THP-1 cells, capillary-based immunoassay, 18 h; type: cell-based; parameters: endogenous in cells; host or cells: THP-1 (ATCC TIB-202); settings: for RIPK2 level relative to DMSO control, mean / RIPK2 level relative to DMSO control, replicate: THP-1, 18 h; for pDC50 (log half-maximal degradation concentration) of RIPK2: THP-1 cells, 18 h, n = 3
Protocol: The compounds were incubated with THP-1 cells for 18 h after which RIPK2 levels were determined using a capillary-based immunoassay (n = 3). All three PROTACs potently degraded RIPK2 in a concentration dependent manner (Fig. 1). […]. This discrepancy between the in vitro RIPK2 degradation and binding potency provides possible evidence for a catalytic mechanism of action of this compound.
(§3) Before treatment with compound or vehicle, THP1 cells, human and rat PBMCs were counted using Vi-Cell cell counter (Invitrogen) and adjusted to a final cell density of […] using complete growth medium. Cells or whole blood were treated with vehicle (0.1% DMSO) or fixed concentrations of compound up to 1 μM in half log unit increments and incubated for the time period indicated in the figure.
(§4) Simple Western immunoassay: Cell lysates were mixed with 5× concentrated master mix (Protein Simple) and denatured at 95 °C on a heat block for 5 min together with the provided ladder (Protein Simple). Antibodies were diluted in the provided buffer as following: anti-RIPK2 (1:10 or 1:50), anti-cIAP1(1:10), anti-cIAP2 (1:10), anti-XIAP (1:10), mouse anti-β-actin (Abcam - 1:1000), rabbit anti-β-actin (Abcam - 1:50) and anti-vinculin (1:100). All reagents (blocking buffer, primary and secondary antibodies, streptavadin, luminol/peroxide, separation matrix, stacking matrix and water) were added to the Protein Simple plate containing the ladder and lysates and the plate was placed in a Protein Simple Western instrument and the Simple Western default size assay protocol was used. All samples were analyzed using the associated Compass software 3.1.7. The area under the peak values obtained for RIPK2, cIAP1, cIAP2 or XIAP were normalized relative to the control protein values.
(§5) In vitro experimental data were analyzed using a 4-parameter logistic equation in GraphPad Prism 5.0.4. to generate an estimate of the half-maximal concentration and maximal degradation, DC50 and Dmax value respectively, for concentration-degradation relationships. Cytokine levels were analyzed in a similar manner to yield IC50 and Imax values. […] Where analysis to a sigmoidal relationship was not possible, the data points are shown as mean ± s.e.m.

[4] = target: T1, RIPK2; assay: RIPK2 fluorescence polarisation binding assay
[5] = tested on: L18-MDP-induced TNFα release; assay: L18-MDP-induced cytokine release (TNFα, IL1β, IL-6, IL-8, IL-10) in human PBMCs; type: cell-based; settings: human PBMCs
Protocol: (§6) PBMCs were isolated from leukodepletion filter from platelet aphaeresis supplied by National Health System Blood and Transplant—NHSBT Apheresed at NHBST.
as §3
(§7) Where the assessment of cytokines was performed, L18-MDP was added to the cell culture media (1 μg/ml) or to the rat blood samples (100 ng/ml) and samples were incubated for up to 4 h. […] Samples were them spun down at 1000 g and the cell culture supernatant, plasma or serum were collected for cytokines assessment, while cell pellets were used for RIPK2 and/or cIAP1, cIAP2, and XIAP levels analysis via immunoblotting.
as §2, §5

[6] = target: T1, RIPK2; assay: RIPK2 degradation in human PBMCs (immunoassay); type: cell-based; parameters: endogenous in cells; host or cells: primary human PBMCs from leukodepletion filters (NHSBT)
Protocol: as §6, §3, §7
as §4, with “All samples were analyzed using the associated Compass software 3.1.7.” left out
as §5

T1 sequence (O43353 whole entry): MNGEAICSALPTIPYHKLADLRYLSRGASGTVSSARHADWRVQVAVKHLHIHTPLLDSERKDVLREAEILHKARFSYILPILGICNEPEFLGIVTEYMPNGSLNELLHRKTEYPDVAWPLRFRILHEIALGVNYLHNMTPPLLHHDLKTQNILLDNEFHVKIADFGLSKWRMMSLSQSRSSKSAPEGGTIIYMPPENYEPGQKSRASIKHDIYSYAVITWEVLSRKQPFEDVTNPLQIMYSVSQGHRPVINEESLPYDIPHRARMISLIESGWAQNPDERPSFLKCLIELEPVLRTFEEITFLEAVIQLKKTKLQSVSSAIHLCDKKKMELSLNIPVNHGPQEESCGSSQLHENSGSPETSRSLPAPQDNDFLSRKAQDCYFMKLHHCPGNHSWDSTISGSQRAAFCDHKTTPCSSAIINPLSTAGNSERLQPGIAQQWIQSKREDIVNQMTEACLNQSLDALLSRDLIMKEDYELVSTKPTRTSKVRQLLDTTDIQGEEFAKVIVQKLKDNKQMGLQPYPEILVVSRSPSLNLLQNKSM

SMILES	RIPK2 level relative to DMSO control, mean ([3]; concentration 5.64503e-11 (uM))	RIPK2 level relative to DMSO control, replicate ([3]; concentration 5.64503e-11 (uM))	RIPK2 level relative to DMSO control, mean ([3]; concentration 1.69351e-10 (uM))	RIPK2 level relative to DMSO control, replicate ([3]; concentration 1.69351e-10 (uM))	RIPK2 level relative to DMSO control, mean ([3]; concentration 5.08053e-10 (uM))	RIPK2 level relative to DMSO control, replicate ([3]; concentration 5.08053e-10 (uM))	RIPK2 level relative to DMSO control, mean ([3]; concentration 1.52416e-9 (uM))	RIPK2 level relative to DMSO control, replicate ([3]; concentration 1.52416e-9 (uM))	RIPK2 level relative to DMSO control, mean ([3]; concentration 4.57247e-9 (uM))	RIPK2 level relative to DMSO control, replicate ([3]; concentration 4.57247e-9 (uM))	RIPK2 level relative to DMSO control, mean ([3]; concentration 1.37174e-8 (uM))	RIPK2 level relative to DMSO control, replicate ([3]; concentration 1.37174e-8 (uM))	RIPK2 level relative to DMSO control, mean ([3]; concentration 4.11523e-8 (uM))	RIPK2 level relative to DMSO control, replicate ([3]; concentration 4.11523e-8 (uM))	RIPK2 level relative to DMSO control, mean ([3]; concentration 1.23457e-7 (uM))	RIPK2 level relative to DMSO control, replicate ([3]; concentration 1.23457e-7 (uM))	RIPK2 level relative to DMSO control, mean ([3]; concentration 3.7037e-7 (uM))	RIPK2 level relative to DMSO control, replicate ([3]; concentration 3.7037e-7 (uM))	RIPK2 level relative to DMSO control, mean ([3]; concentration 1.11111e-6 (uM))	RIPK2 level relative to DMSO control, replicate ([3]; concentration 1.11111e-6 (uM))	other results
C[C@]12C=CC(=O)C=C1CC[C@@H]1[C@@H]2[C@@H](O)C[C@@]2(C)[C@H]1CC[C@]2(O)C(=O)CO [prednisolone, reference compound]																					IL-1b (Ctrl=DMSO = 100) [1]: 18 and 20 and 82 and 15 and 48 and 13 and 5 (2×) and 35 and 37 and 12 and 6 and 49 and 17; IL-6 (Ctrl=DMSO = 100) [1]: 26 (2×) and 27 and 10 and 1 and 8 and 46 and 63 and 31 and 7 and 42 and 40 and 90 and 50 and 9; TNFa (Ctrl=DMSO = 100) [1]: 29 and 15 and 42 and 28 and 19 and 0 and 13 and 33 and 46 (2×) and 27 and 26 and 38 and 23 and 66; IL-1b (Ctrl=DMSO = 100) [2]: 65 and 41 and 10 and 46 and 7 (2×) and 49 and 30 and 14 and 33 and 36 and 5 and 17 and 39 and 19 (2×) and 13 and 34 and 28; IL-6 (Ctrl=DMSO = 100) [2]: 58 and 14 and 16 and 25 and 18 and 9 and 12 and 5 (2×) and 74 and 26 and 34 and 28 and 19 and 3 and 21 and 17 and 48 and 24; TNFa (Ctrl=DMSO = 100) [2]: 36 and 19 and 40 and 48 and 18 (2×) and 56 and 8 and 33 and 55 and 69 and 27 and 38 (2×) and 20 and 25 and 35 and 14 and 39
Cc1ncsc1-c1ccc(CNC(=O)[C@@H]2C[C@@H](O)CN2C(=O)[C@@H](NC(=O)COCCOCCOCCOCCOc2cc3nccc(Nc4ccc5scnc5c4)c3cc2S(=O)(=O)C(C)(C)C)C(C)(C)C)cc1 [PROTAC 1]	137.19%	137.14% and 131.67% and 142.75%	152.51%	155.57% and 149.03% and 152.92%	122.01%	106.27% and 143.87% and 115.89%	89.18%	63.87% and 96.25% and 107.40%	27.32%	23.09% and 35.58% and 23.29%	9.76%	12.67% and 5.77% and 10.83%	6.61%	11.20% and 7.66% and 0.96%	5.05%	9.24% and 2.76% and 3.15%	6.31%	7.12% and 6.30% and 5.51%	33.78%	1.60% and 12.61% and 87.13%	RIPK2 level relative to DMSO control, mean ([3]; concentration 3.33333e-6 (uM)): 14.14%; RIPK2 level relative to DMSO control, replicate ([3]; concentration 3.33333e-6 (uM)): 1.88% and 3.30% and 37.22%; RIPK2 level relative to DMSO control, mean ([3]; concentration 1e-5 (uM)): 11.28%; RIPK2 level relative to DMSO control, replicate ([3]; concentration 1e-5 (uM)): 13.04% and 4.22% and 16.59%; pDC50 (log half-maximal degradation concentration) of RIPK2 [3]: 8.7 ± 0.1
CN[C@H](C)C(=O)N[C@@H](C(=O)N1CCC[C@@H]1c1nc(C(=O)c2ccc(F)cc2)cs1)C1CCN(C(=O)c2cnc(N3CCN(CCOc4cc5ncnc(Nc6n[nH]c(C)c6C)c5cc4S(=O)(=O)C(C)(C)C)CC3)nc2)CC1 [PROTAC 5]																					RIPK2 FP pIC50 ± SEM (n) [4]: 6.7 ± 0.05 (12); hPBMC MDP pIC50 ± SEM, 6 h (n = 3) ([5]; L18-MDP-induced TNFα release, 6 h): 6.5 ± 0.5; fold reduced potency in L18-MDP-induced TNFα release versus the active PROTAC ([5]; control PROTAC vs its enantiomer): more than 10 fold; RIPK2 degradation in human PBMCs, in words [6]: does not degrade RIPK2; hPBMC pDC50 ± SEM, 24 h (n = 3) ([6]; RIPK2 degradation, 24 h): Non-degrader
CC(C)(C)S(=O)(=O)c1cc2c(Nc3ccc4scnc4c3)ccnc2cc1OCCOCCOCCOCCOCC(=O)Nc1cccc2c1CN([C@H]1CCC(=O)NC1=O)C2=O [PROTAC 3]	146.59%	194.68% and 98.50%	122.55%	71.16% and 101.63% and 194.85%	97.79%	93.88% and 82.74% and 116.75%	112.46%	101.29% and 70.25% and 165.85%	60.56%	92.51% and 28.00% and 61.18%	42.80%	81.76% and 12.71% and 33.93%	29.73%	51.94% and 1.28% and 35.96%	21.93%	35.50% and 5.30% and 24.99%	20.89%	34.52% and 2.06% and 26.09%	14.85%	24.75% and 3.56% and 16.23%	RIPK2 level relative to DMSO control, mean ([3]; concentration 3.33333e-6 (uM)): 15.39%; RIPK2 level relative to DMSO control, replicate ([3]; concentration 3.33333e-6 (uM)): 20.92% and 6.74% and 18.51%; RIPK2 level relative to DMSO control, mean ([3]; concentration 1e-5 (uM)): 22.12%; RIPK2 level relative to DMSO control, replicate ([3]; concentration 1e-5 (uM)): 28.44% and 5.50% and 32.40%; pDC50 (log half-maximal degradation concentration) of RIPK2 [3]: 8.6 ± 0.4
